Source: patent US12357601B2, “Composition for inhibiting growth of bacterium having menaquinone synthesis pathway through futalosine or futalosine derivative” (NOSTER INC., priority 2017, dated 2025)
≈ marks a conversion by molar mass, not a printed value.

Experiments:
Type in all cases: cell-based
[1] = system: Campylobacter coli ATCC33559 strain; assay: Proliferation inhibitory effect (in vitro) on Campylobacter coli, absorbance and colony count; conditions: 100, 200, 400 μM, 24 hr; concentration dependent; strong compared to linoleic acid
[2] = system: Campylobacter jejuni ATCC33560 strain; assay: Proliferation inhibitory effect (in vitro) on Campylobacter jejuni, absorbance and colony count; conditions: 100, 200, 400 μM, 24 hr; concentration dependent; strong compared to linoleic acid
[3] = system: Helicobacter pylori TK1029 strain; assay: Proliferation inhibitory effect (in vitro) by ED50 measurement, viable count; conditions: BHI 2% FCS, viable count; for ED50 value, 15 hr later: 15 hr shaking culture; for ED50 value, 25 hr later: 25 hr shaking culture
Method: Helicobacter pylori TK1029 strain (clinical isolate) was cultured in Brucella broth containing 10% FCS and 1×10^6 CFU of bacteria were respectively added to 3 mL of Brain-Heart Infusion Broth (BHI) media (previously added with free fatty acid (stearic acid, oleic acid, linoleic acid, ricinoleic acid, HYA) at 0, 0.5, 5, 50, 500 μg/mL) containing 2% FCS in a 6-well plate. Shaking culture was performed under conditions of temperature 37° C., humidity 100%, microaerobic (5% 02, 10% CO2, 85% N2), the culture medium (0.1 mL) from each well was applied to NISSUI plate, Helicobacter agar medium 15 hr and 25 hr later, and the number of colonies formed after microaerobic culture for 3 days was counted.

[4] = system: Helicobacter pylori SS1 strain, TN2GF4 strain, ATCC43579 strain, NCTC11637 strain, TY281 strain, TY1345 strain; assay: Proliferation inhibitory effect (in vitro), static culture 3 days, colony count; conditions: menaquinone (MK-4) 100 μg/mL added with fatty acid
Method: Helicobacter pylori SS1 strain, TN2GF4 strain, ATCC43579 strain, NCTC11637 strain, TY281 strain, TY1345 strain were each inoculated to a 6-well plate containing 3 mL of a liquid medium (Brucella broth added with 10% FCS), and fatty acid (200 μM or 1000 μM) and menaquinone (MK-4) 100 μg/mL were added. After static culture for 3 days at temperature 37° C., microaerobic conditions (5% 02, 10% 002, 85% N2), the culture medium was applied on a Helicobacter agar plate, cultured for 3 days and the resulting colonies were counted (FIG. 1-1 A: SS1 strain, FIG. 1-2 B: TN2GF4 strain, FIG. 1-3 C: ATCC43579 strain, FIG. 1-4 D: NCTC11637 strain, FIG. 1-5 E: TY281 strain, FIG. 1-6 F: TY1345 strain. Item C: control (no addition), Item 1: HYA addition, Item 2: HYA and menaquinone addition, Item 3: linoleic acid addition, Item 4: linoleic acid and menaquinone addition).

[5] = system: Helicobacter pylori SS1 strain, TN2GF4 strain, TK1029 strain, RC-1 strain; assay: Proliferation inhibitory effect (in vitro) of low concentration fatty acid, shaking culture 24 hr, colony count; conditions: menaquinone (MK-4) 100 μg/mL added with fatty acid 20 μM
Method: Helicobacter pylori SS1 strain, TN2GF4 strain, TK1029 strain, RC-1 strain were each inoculated to a 6-well plate containing 2 mL of a liquid medium (BHI added with 5% FCS), and fatty acid (20 μM) and menaquinone (MK-4) 100 μg/mL were added. After shaking culture for 24 hr at temperature 37° C., microaerobic conditions (5% 02, 10% CO2, 85% N2), the culture medium was applied on a Helicobacter agar plate, cultured for 3 days and the resulting colonies were counted (FIG. 2-1 A: SS1 strain, FIG. 2-2 B: TN2GF4 strain, FIG. 2-3 C: TK1029 strain, FIG. 2-4 D: RC-1 strain. Item 1: control (menaquinone no addition), Item 2: control (menaquinone 100 μg/mL addition), Item 3: HYA 20 μM (menaquinone no addition), Item 4: HYA 20 μM (menaquinone 100 μg/mL addition), Item 5: linoleic acid 20 μM (menaquinone no addition), Item 6: linoleic acid 20 μM (menaquinone 100 μg/mL addition). *, P<0.0001 vs. Control (ordinary one-way ANOVA)).

CCCCC/C=C\CC(O)CC/C=C\CCCCC(=O)O (stereo not drawn) [γHYA, 10-hydroxy-cis-6,cis-12-octadecadienoic acid] was tested, and the “proliferation of Campylobacter coli ATCC33559 strain” value [1] was “inhibited proliferation” and the “proliferation of Campylobacter jejuni ATCC33560 strain” value [2] was “inhibited proliferation”.

CCCCCCCCCCCCCCCCCC(=O)O [stearic acid] was tested, and the “ED50 value, 15 hr later” value [3] was 500 µg/mL (≈ 1760 µM) and the “ED50 value, 25 hr later” value [3] was greater than 500 µg/mL.

In the case of CCCCC/C=C\C/C=C\CCCCCCCC(=O)O [linoleic acid], the “ED50 value, 15 hr later” value [3] is reported as 50 µg/mL (≈ 178 µM) and the “ED50 value, 25 hr later” value [3] is reported as 50 µg/mL (≈ 178 µM).

For CCCCCC[C@@H](O)C/C=C\CCCCCCCC(=O)O [ricinoleic acid], the “ED50 value, 15 hr later” value [3] was 5 µg/mL (≈ 16.8 µM) and the “ED50 value, 25 hr later” value [3] was 0.5 µg/mL (≈ 1.68 µM).

In the case of CCCCCCCC/C=C\CCCCCCCC(=O)O [oleic acid], the “ED50 value, 15 hr later” value [3] is reported as 50 µg/mL (≈ 177 µM) and the “ED50 value, 25 hr later” value [3] is reported as greater than 50 µg/mL.

For CC(C)=CCC/C(C)=C/CC/C(C)=C/CC/C(C)=C/CC1=C(C)C(=O)c2ccccc2C1=O [menaquinone (MK-4), menaquinone], the “effect of menaquinone addition on inhibition of proliferation by fatty acid” value [4] was “mitigated inhibition of proliferation” and the “effect of menaquinone addition on inhibition of proliferation by fatty acid” value [5] was “mitigated inhibition of proliferation”.

With CC/C=C\C/C=C\CC(O)CCCCCCCCC(=O)O (stereo not drawn) [αHYA, 10-hydroxy-cis-12,cis-15-octadecadienoic acid] the “proliferation of Campylobacter coli ATCC33559 strain” value [1] was “inhibited proliferation” and the “proliferation of Campylobacter jejuni ATCC33560 strain” value [2] was “inhibited proliferation”.
